Experimental data published in PMC5958115, “A novel small molecule chaperone of rod opsin and its potential therapy for retinal degeneration” (Nature Communications, 2018).

Tests used:
P23H opsin = details: cited from earlier work
[1] = Metabolic stability in mouse liver microsomes; type: in vitro ADME; details: 5 µM, NADPH, 37 °C
Procedure: A standard metabolic stability assay was performed in the presence of mouse or human liver microsomes. YC-001 (5 µM) was incubated with the microsomes (0.125 mg mL^−1) resuspended in 0.2 mL of PBS buffer, pH 7.4 composed of 10 mM Na2HPO4, 1.8 mM KH2PO4, 137 mM NaCl, and 2.7 mM KCl. The enzymatic reaction to produce oxidized metabolites was initiated by addition of NADPH (1 mM). Samples were incubated at 37 °C for up to 240 min. Incubation without the cofactor was conducted in parallel to assess NADPH-independent clearance. The reactions were stopped with 0.2 mL of methanol followed by 0.3 mL chloroform. Residual YC-001 was extracted by vigorous shaking. To facilitate phase separation, the samples were spun down for 2 min, 15,000×g. The chloroform fraction was collected, dried down, and the extracted organic compounds were redissolved in 0.2 mL of methanol. To quantify YC-001, the samples were injected onto an Eclipse XDB-C18 column (4.6 × 150 mm, 5 µm) (Agilent Technologies) equilibrated with solvent composed of 30% acetonitrile in water (v/v), and 0.1% formic acid. YC-001 was eluted in a gradient of acetonitrile in water (30–100%) developed within 15 min at a flow rate of 1 mL min^−1, detected at 350 nm, and quantified by correlating peak areas with known quantities of an original synthetic standard. […]

human rod opsin G106R = biological target: T1, human rod opsin G106R (Homo sapiens, UniProt P08100, G106R); experiment: Cell-surface immunostain of rod opsin mutant in transfected NIH3T3 cells; type: cell-based; details: 10 µM, 24 h
T1 construct: expressed in transfected cells; host or cells: NIH3T3 cells, transient transfection with pcDNA3.1-hOpsin mutant
Procedure: (§1) Human rhodopsin cDNA was placed into the pcDNA3.1(+) vector (pcDNA3.1-hOpsin). Site-directed mutagenesis was performed following the QuickChange II site-directed mutagenesis kit (Agilent Technologies Inc.). Primers for the following mutations were as follows: T4R-forward, 5′-[…]-3′; T4R-reverse, 5′-[…]-3′; P53R-forward, 5′-[…]-3′; P53R-reverse, 5′-[…]-3′; G106R-forward, 5′-[…]-3′; G106R-reverse, 5′-[…]-3′; C110Y-forward, 5′-[…]-3′; C110Y-reverse, 5′-[…]-3′; D190N-forward, 5′-[…]-3′; D190N-reverse, 5′-[…]-3′; P267L-forward, 5′-[…]-3′; P267L-reverse, 5′-[…]-3′. DNA vectors with rhodopsin mutations were confirmed by Sanger sequencing. After NIH3T3 cells were transfected with pcDNA3.1-hOpsin or its mutants for 24 h, these cells were resuspended and seeded into a 96-well plate with an optic bottom (Corning). […] Each condition was repeated in three wells. The treated plate was covered in tin foil and incubated at 37 °C with 5% CO2 for 24 h. Cells were then immunostained with 50 µg mL^−1 Alexa488-conjugated B6-30 anti-rhodopsin antibody. Cells were not exposed to detergents so that cell membranes were kept intact and only rhodopsin on the cell surface was immunostained. Alexa 488 fluorescence was imaged by the ImageExpress (Molecular Devices) high-content imager with a ×20 objective.

human rod opsin P53R = biological target: T2, human rod opsin P53R (Homo sapiens, UniProt P08100, P53R); experiment: as above; type: cell-based; details: 10 µM, 24 h
T2 construct: expressed in transfected cells; host or cells: NIH3T3 cells, transient transfection with pcDNA3.1-hOpsin mutant
Procedure: as §1

human rod opsin P267L = biological target: T3, human rod opsin P267L (Homo sapiens, UniProt P08100, P267L); experiment: as above; type: cell-based; details: 10 µM, 24 h
T3 construct: expressed in transfected cells; host or cells: NIH3T3 cells, transient transfection with pcDNA3.1-hOpsin mutant
Procedure: as §1

human rod opsin C110Y = biological target: T4, human rod opsin C110Y (Homo sapiens, UniProt P08100, C110Y); experiment: as above; type: cell-based; details: 10 µM, 24 h
T4 construct: expressed in transfected cells; host or cells: NIH3T3 cells, transient transfection with pcDNA3.1-hOpsin mutant
Procedure: as §1

human rod opsin D190N = biological target: T5, human rod opsin D190N (Homo sapiens, UniProt P08100, D190N); experiment: as above; type: cell-based; details: 10 µM, 24 h
T5 construct: expressed in transfected cells; host or cells: NIH3T3 cells, transient transfection with pcDNA3.1-hOpsin mutant
Procedure: as §1

## O=C1OCC(c2ccc(Cl)s2)=C1c1cccs1 [YC-001]
P23H opsin
  effect of co-treatment with scriptaid: synergistic effect
[1]
  initial clearance in liver microsomes: even higher initial clearance compared to the fast clearance drug, verapamil
Human rod opsin G106R
  cell-surface staining of G106R rod opsin: increased significantly
Human rod opsin P53R
  cell-surface staining of P53R rod opsin: not P53R or C110Y mutants increased significantly
Human rod opsin P267L
  cell-surface staining of P267L rod opsin: increased significantly
Human rod opsin C110Y
  cell-surface staining of C110Y rod opsin: not P53R or C110Y mutants increased significantly
Human rod opsin D190N
  cell-surface staining of D190N rod opsin: increased significantly
